From US6646137B1, “Non-peptide GnRH agents” (priority 1998, dated 2003)

Molecular target: T1, human GnRH receptor (Homo sapiens, UniProt P30968)
T1 construct: The cDNA for the human GnRH receptor is cloned into the plasmid expression vector, pcDNA 3; expressed in transfected cells; host or cells: HEK 293 cells, stably transfected (pcDNA 3); membrane preparation
T1 sequence (P30968 1-328): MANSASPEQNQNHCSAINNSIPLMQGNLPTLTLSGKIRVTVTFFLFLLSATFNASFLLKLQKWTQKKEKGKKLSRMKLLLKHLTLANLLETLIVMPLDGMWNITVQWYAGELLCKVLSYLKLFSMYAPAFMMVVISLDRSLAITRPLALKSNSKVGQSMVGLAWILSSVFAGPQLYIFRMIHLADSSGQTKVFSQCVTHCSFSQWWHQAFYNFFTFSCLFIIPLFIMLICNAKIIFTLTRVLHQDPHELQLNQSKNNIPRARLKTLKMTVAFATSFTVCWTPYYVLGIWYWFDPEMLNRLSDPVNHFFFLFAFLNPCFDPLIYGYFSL
Test: GnRH receptor competitive radioligand binding assay (125I-GnRH-A, HEK 293 cell membranes)
Conditions: compound at 10 μM; average of 1st and 2nd test; read-out: Average % Remaining (percent of specific binding remaining)
Source text: The cDNA for the human GnRH receptor is cloned into the plasmid expression vector, pcDNA 3 (In Vitrogen), and stably transfected in HEK 293 cells (a cell line developed by Dr. Stuart Sealfon, Mount Sinai Medical School, New York, N.Y.).
The human GnRH receptor (hGnRH) is cloned into pcDNA 3 (In Vitrogen), which provides high-level expression and a neomycin resistance marker. Lipofectamine (GIBCO BRL) is used to transfect HEK 293 cells with plasmid DNA. This method involves mixing the plasmid and reagent in serum-free medium, allowing DNA-liposome complexes to form, and overlaying cells with this solution. The HEK 293 cells are plated (seeded) on a 10-cm tissue culture dish at a density of 3×10^6 cells/dish the day before transfection. For each plate, 8 μg DNA plus 0.8 mL serum-free medium is mixed with 48 μL lipofectamine plus 0.8 mL serum-free medium, followed by incubation for 30 minutes at room temperature to allow DNA-liposome complexes to form. Serum-free medium is added to give a final volume of 6 mL/plate. The cells are rinsed twice with serum-free medium and overlayed with the DNA-liposome mixture. Five hours after transfection, an equal volume (6 mL) of medium containing 20% FBS (fetal bovine serum) is added. The cells are fed with fresh complete medium 18-24 hours after transfection. The cells are split 72 hours following transfection, at densities of 1:10 and 1:20. Stable tranformants are selected for by growth of the cells in antibiotic containing medium (G418, Sigma Chemical Company (also known as Geneticin)). Colonies are isolated and tested for receptor expression by radioligand binding and by measuring phosphoinositol turnover.
HEK 293 cells stably transfected with human GnRH receptors as described above are grown in MEM (minimal essential medium, available from Sigma Chemical Company) supplemented with 0.1% G418 (Sigma Chemical Company). Cells are homogenized in buffer A containing 50 mM Tris (pH 74.), 0.32M sucrose, 2 mM ethyleneglycol-bis(β-aminoethyl)-N,N,N′,N′-tetraacetic acid (EGTA), 1 mM phenylmethylsulfonyl fluoride (PMSF), 5 μg/mL aprotinen, 5 μg/mL Pepstatin A, and 1 μg/mL leupeptin. The homogenized cells are centrifuged at 4° C. at 20,000×g for 25 minutes, resuspended in buffer A, and recentrifuged at 4° C. at 20,000×g for an additional 25 minutes. Total membrane protein is determined with a BCA kit (Pierce, Rockford, Ill.). Membranes are stored at −70° C. at a final membrane protein concentration of 5 mg/mL.
The radioiodinated agonist analog of GnRH, [des-Gly^10, D-Ala^8]GnRH ethylamide (GnRH-A), is used as the labeled ligand. One μg of GnRH-A diluted in 0.1M acetic acid is added to an lodogen®-coated borosilicate glass tube pierce) containing 35 μL of 0.05M phosphate buffer (pH 7.4-7.6) and 1 mCi of Na[^125I]. The reaction mixture is vortexed and incubated for 1 minute at room temperature. After one minute, the mixture is vortexed again and allowed to incubate for an additional minute. Two mL of 0.5M acetic acid/1% BSA is added to the reaction tube, and the mixture is added to a C18 Sep-Pak cartridge. The cartridge is washed with subsequent washes of 5 mL H2O and 5 mL 0.5M acetic acid, and then eluted with 5×1 mL of 60% CH3CN/40% 0.5M acetic acid. The eluant is diluted with 3×volume of HPLC buffer A (0.1% TFA in H2O) and loaded onto a C18 column. The iodinated product is eluted over 20-25 minutes with a gradient of 25-100% CH3CN containing 0.1% TFA. The radioactive fractions (750 μL/fraction) are collected into clean polypropylene tubes containing 10 μL of 10% BSA. Fractions are assessed for biological activity by radioligand binding. Active fractions are utilized to screen the compounds for competitive binding assays.
HEK 293 cell membranes stably expressing hGnRHR (human GnRH receptors) are diluted to 0.5-1.0 mg/mL with assay buffer containing 50 mM HEPES (pH 7.4), 1 mM ethylenediarninetetraacetic acid (EDTA), 2.5 mM MgCl2, and 0.1% BSA. […]

Compound | remaining activity at 10 µM [%]
Cc1cc2c(cc1CN(CC1CCCC(CNC(=N)N)C1)C(=O)c1ccc(Cl)nc1)C(C)(C)CCC2(C)C (stereo not drawn) [Compound 58] | 59
N=C(N)NCc1ccc(CN(CC23CC=CCC2C2CC=CCC2O3)C(=O)c2ccccc2)cc1 (stereo not drawn) [Compound 8] | 45
N=C(N)NCc1ccc(CN(Cc2ccc(OCc3ccccc3)c(OCc3ccccc3)c2)C(=O)c2ccc(Cl)nc2)cc1 [Compound 20] | 57
COCC(=O)N(Cc1cc2c(cc1C)C(C)(C)CCC2(C)C)CC1CCC(CNC(=N)N)CC1 (stereo not drawn) [Compound 82] | 41
Cc1cc2c(cc1CN(CC1CCCC(CNC(=N)N)C1)C(=O)c1ccco1)C(C)(C)CCC2(C)C (stereo not drawn) [Compound 55] | -2
CC(C)(C)c1ccc(CN(CCCCNC(=N)N)C(=O)c2ccc3ccccc3c2)cc1 [Compound 24] | 56
CN(C)Cc1ccc(CN(Cc2ccc(OCc3ccccc3)c(OCc3ccccc3)c2)C(=O)c2ccco2)cc1 [Compound 70] | 45
Cc1cc2c(cc1CN(CC1CCCC(CNC(=N)N)C1)C(=O)C1CCCCC1)C(C)(C)CCC2(C)C (stereo not drawn) [Compound 52] | 58
CC(=O)N(Cc1ccc(CNC(=N)N)cc1)Cc1cc2c(cc1C)C(C)(C)CCC2(C)C [Compound 15] | 59
CN(C)CCCOc1ccc(CN(CC2CCCC(CNC(=N)N)C2)C(=O)c2ccc3ccccc3c2)cc1 (stereo not drawn) [Compound 46] | 49
CC(C)(C)c1ccc(CN(CCCCNC(=N)N)C(=O)c2cccc3ccccc23)cc1 [Compound 23] | 49
CC(=O)N(Cc1cccc(Oc2ccc(Cl)cc2)c1)CC1CCC(CNC(=N)N)CC1 (stereo not drawn) [Compound 75] | 59
N=C(N)NCC1CCCC(CN(Cc2ccc(OCc3ccccc3)c(OCc3ccccc3)c2)C(=O)C2CCCCC2)C1 (stereo not drawn) [Compound 59] | 59
N=C(N)NCC1CCC(CN(Cc2cccc(Oc3ccc(Cl)cc3)c2)C(=O)c2ccc(Cl)nc2)CC1 (stereo not drawn) [Compound 76] | 60
N=C(N)NCC1CCCC(CN(CC23CC=CCC2C2CC=CCC2O3)C(=O)c2cccc3ccccc23)C1 (stereo not drawn) [Compound 47] | 42

Same assay, conditions: compound at 10 μM; crude compounds; 125I-GnRH-A; lower value = higher inhibition; read-out: % Remaining 1st Test (percent of specific binding remaining)

Compound | remaining activity at 10 µM [%]
Cc1cc2c(cc1CN(CC1CCCC(CNC(=N)N)C1)C(=O)c1ccc(Cl)nc1)C(C)(C)CCC2(C)C (stereo not drawn) [Compound 58] | 57
N=C(N)NCc1ccc(CN(CC23CC=CCC2C2CC=CCC2O3)C(=O)c2ccccc2)cc1 (stereo not drawn) [Compound 8] | 42
N=C(N)NCc1ccc(CN(Cc2ccc(OCc3ccccc3)c(OCc3ccccc3)c2)C(=O)c2ccc(Cl)nc2)cc1 [Compound 20] | 60
COCC(=O)N(Cc1cc2c(cc1C)C(C)(C)CCC2(C)C)CC1CCC(CNC(=N)N)CC1 (stereo not drawn) [Compound 82] | 46
Cc1cc2c(cc1CN(CC1CCCC(CNC(=N)N)C1)C(=O)c1ccco1)C(C)(C)CCC2(C)C (stereo not drawn) [Compound 55] | -2
CC(C)(C)c1ccc(CN(CCCCNC(=N)N)C(=O)c2ccc3ccccc3c2)cc1 [Compound 24] | 58
CN(C)Cc1ccc(CN(Cc2ccc(OCc3ccccc3)c(OCc3ccccc3)c2)C(=O)c2ccco2)cc1 [Compound 70] | 47
Cc1cc2c(cc1CN(CC1CCCC(CNC(=N)N)C1)C(=O)C1CCCCC1)C(C)(C)CCC2(C)C (stereo not drawn) [Compound 52] | 57
CC(=O)N(Cc1ccc(CNC(=N)N)cc1)Cc1cc2c(cc1C)C(C)(C)CCC2(C)C [Compound 15] | 58
CN(C)CCCOc1ccc(CN(CC2CCCC(CNC(=N)N)C2)C(=O)c2ccc3ccccc3c2)cc1 (stereo not drawn) [Compound 46] | 45
CC(C)(C)c1ccc(CN(CCCCNC(=N)N)C(=O)c2cccc3ccccc23)cc1 [Compound 23] | 48
CC(=O)N(Cc1cccc(Oc2ccc(Cl)cc2)c1)CC1CCC(CNC(=N)N)CC1 (stereo not drawn) [Compound 75] | 59
N=C(N)NCC1CCCC(CN(Cc2ccc(OCc3ccccc3)c(OCc3ccccc3)c2)C(=O)C2CCCCC2)C1 (stereo not drawn) [Compound 59] | 57
N=C(N)NCC1CCC(CN(Cc2cccc(Oc3ccc(Cl)cc3)c2)C(=O)c2ccc(Cl)nc2)CC1 (stereo not drawn) [Compound 76] | 60
N=C(N)NCC1CCCC(CN(CC23CC=CCC2C2CC=CCC2O3)C(=O)c2cccc3ccccc23)C1 (stereo not drawn) [Compound 47] | 39

Same assay, conditions: compound at 10 μM; crude compounds; 125I-GnRH-A; lower value = higher inhibition; read-out: % Remaining 2nd Test (percent of specific binding remaining)

Compound | remaining activity at 10 µM [%]
Cc1cc2c(cc1CN(CC1CCCC(CNC(=N)N)C1)C(=O)c1ccc(Cl)nc1)C(C)(C)CCC2(C)C (stereo not drawn) [Compound 58] | 60
N=C(N)NCc1ccc(CN(CC23CC=CCC2C2CC=CCC2O3)C(=O)c2ccccc2)cc1 (stereo not drawn) [Compound 8] | 48
N=C(N)NCc1ccc(CN(Cc2ccc(OCc3ccccc3)c(OCc3ccccc3)c2)C(=O)c2ccc(Cl)nc2)cc1 [Compound 20] | 54
COCC(=O)N(Cc1cc2c(cc1C)C(C)(C)CCC2(C)C)CC1CCC(CNC(=N)N)CC1 (stereo not drawn) [Compound 82] | 35
Cc1cc2c(cc1CN(CC1CCCC(CNC(=N)N)C1)C(=O)c1ccco1)C(C)(C)CCC2(C)C (stereo not drawn) [Compound 55] | -1
CC(C)(C)c1ccc(CN(CCCCNC(=N)N)C(=O)c2ccc3ccccc3c2)cc1 [Compound 24] | 58
CN(C)Cc1ccc(CN(Cc2ccc(OCc3ccccc3)c(OCc3ccccc3)c2)C(=O)c2ccco2)cc1 [Compound 70] | 48
Cc1cc2c(cc1CN(CC1CCCC(CNC(=N)N)C1)C(=O)C1CCCCC1)C(C)(C)CCC2(C)C (stereo not drawn) [Compound 52] | 59
CC(=O)N(Cc1ccc(CNC(=N)N)cc1)Cc1cc2c(cc1C)C(C)(C)CCC2(C)C [Compound 15] | 60
CN(C)CCCOc1ccc(CN(CC2CCCC(CNC(=N)N)C2)C(=O)c2ccc3ccccc3c2)cc1 (stereo not drawn) [Compound 46] | 52
CC(C)(C)c1ccc(CN(CCCCNC(=N)N)C(=O)c2cccc3ccccc23)cc1 [Compound 23] | 50
CC(=O)N(Cc1cccc(Oc2ccc(Cl)cc2)c1)CC1CCC(CNC(=N)N)CC1 (stereo not drawn) [Compound 75] | 58
N=C(N)NCC1CCCC(CN(Cc2ccc(OCc3ccccc3)c(OCc3ccccc3)c2)C(=O)C2CCCCC2)C1 (stereo not drawn) [Compound 59] | 60
N=C(N)NCC1CCC(CN(Cc2cccc(Oc3ccc(Cl)cc3)c2)C(=O)c2ccc(Cl)nc2)CC1 (stereo not drawn) [Compound 76] | 60
N=C(N)NCC1CCCC(CN(CC23CC=CCC2C2CC=CCC2O3)C(=O)c2cccc3ccccc23)C1 (stereo not drawn) [Compound 47] | 44
